PMC6886798, “Expression of myeloid Src-family kinases is associated with poor prognosis in AML and influences Flt3-ITD kinase inhibitor acquired resistance” (PLoS ONE, 2019)

Tests used:
Experiment in all cases: KINOMEscan
Assay type in all cases: binding
Conditions in all cases: 1.0 µM
MKK7 = target: T1, MKK7 (Homo sapiens, UniProt O14733)
T1 construct: purchased Eurofins/DiscoverX KINOMEscan scanMAX
Experimental: (§1) Kinase retention to the immobilized ligand is then measured using quantitative real-time PCR for each kinase-specific DNA barcode.

[1] = target: T2, JAK3(JH1domain-catalytic) (Homo sapiens, UniProt P52333)
T2 construct: JAK3(JH1domain-catalytic); purchased Eurofins/DiscoverX KINOMEscan scanMAX
Experimental: as §1

ANKK1 = target: T3, ANKK1 (Homo sapiens, UniProt Q8NFD2)
T3 construct: purchased Eurofins/DiscoverX KINOMEscan scanMAX
Experimental: as §1

DAPK2 = target: T4, DAPK2 (Homo sapiens, UniProt Q9UIK4)
T4 construct: purchased Eurofins/DiscoverX KINOMEscan scanMAX
Experimental: as §1

NIM1 = target: T5, NIM1 (Homo sapiens, UniProt Q8IY84)
T5 construct: purchased Eurofins/DiscoverX KINOMEscan scanMAX
Experimental: as §1

AAK1 = target: T6, AAK1 (Homo sapiens, UniProt Q2M2I8)
T6 construct: purchased Eurofins/DiscoverX KINOMEscan scanMAX
Experimental: as §1

YSK1 = target: T7, YSK1 (Homo sapiens, UniProt O00506)
T7 construct: purchased Eurofins/DiscoverX (KINOMEscan scanMAX service)
Experimental: as §1

[2] = target: T8, ABL1(T315I)-nonphosphorylated (Homo sapiens, UniProt P00519, T315I)
T8 construct: purchased Eurofins/DiscoverX KINOMEscan scanMAX
Experimental: as §1

DAPK1 = target: T9, DAPK1 (Homo sapiens, UniProt P53355)
T9 construct: purchased Eurofins/DiscoverX KINOMEscan scanMAX
Experimental: as §1

PIK3CD = target: T10, PIK3CD (Homo sapiens, UniProt O00329)
T10 construct: purchased Eurofins/DiscoverX KINOMEscan scanMAX
Experimental: as §1

TTK = target: T11, TTK (Homo sapiens, UniProt P33981)
T11 construct: DNA tag (qPCR barcode); purchased Eurofins/DiscoverX KINOMEscan scanMAX
Experimental: as §1

PIK3CB = target: T12, PIK3CB (Homo sapiens, UniProt P42338)
T12 construct: purchased Eurofins/DiscoverX KINOMEscan scanMAX
Experimental: as §1

PIK3CA(Q546K) = target: T13, PIK3CA(Q546K) (Homo sapiens, UniProt P42336, Q546K)
T13 construct: purchased Eurofins/DiscoverX KINOMEscan scanMAX
T13 sequence (P42336 whole entry Q546K): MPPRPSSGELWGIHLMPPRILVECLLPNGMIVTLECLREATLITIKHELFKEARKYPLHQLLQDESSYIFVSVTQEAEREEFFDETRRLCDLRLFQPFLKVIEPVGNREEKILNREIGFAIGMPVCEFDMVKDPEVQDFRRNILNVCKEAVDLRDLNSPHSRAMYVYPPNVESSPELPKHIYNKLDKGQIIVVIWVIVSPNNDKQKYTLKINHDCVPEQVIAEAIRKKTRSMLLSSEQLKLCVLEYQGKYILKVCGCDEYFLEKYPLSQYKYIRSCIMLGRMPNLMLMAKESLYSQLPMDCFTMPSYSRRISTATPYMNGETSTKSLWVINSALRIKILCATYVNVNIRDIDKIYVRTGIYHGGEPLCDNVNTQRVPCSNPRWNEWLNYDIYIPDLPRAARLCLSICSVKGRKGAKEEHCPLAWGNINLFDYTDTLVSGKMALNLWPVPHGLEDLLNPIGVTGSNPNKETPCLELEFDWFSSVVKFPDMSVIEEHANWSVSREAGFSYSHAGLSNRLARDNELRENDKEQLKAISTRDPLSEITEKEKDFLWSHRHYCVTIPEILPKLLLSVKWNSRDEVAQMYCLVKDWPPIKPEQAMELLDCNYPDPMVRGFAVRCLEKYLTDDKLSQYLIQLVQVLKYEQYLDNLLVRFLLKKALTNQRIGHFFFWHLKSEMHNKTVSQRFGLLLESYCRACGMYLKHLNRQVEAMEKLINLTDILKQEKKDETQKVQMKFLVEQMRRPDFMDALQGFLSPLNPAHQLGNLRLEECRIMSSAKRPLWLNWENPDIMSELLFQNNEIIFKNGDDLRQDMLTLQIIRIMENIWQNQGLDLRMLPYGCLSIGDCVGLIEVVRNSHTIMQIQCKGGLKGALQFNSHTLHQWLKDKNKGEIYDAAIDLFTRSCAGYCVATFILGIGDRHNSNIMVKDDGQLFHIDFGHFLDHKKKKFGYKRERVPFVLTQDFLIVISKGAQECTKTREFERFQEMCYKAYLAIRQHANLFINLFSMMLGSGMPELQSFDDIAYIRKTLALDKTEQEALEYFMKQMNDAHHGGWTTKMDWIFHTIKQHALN
Experimental: as §1

LOK = target: T14, LOK (Homo sapiens, UniProt O94804)
T14 construct: purchased Eurofins/DiscoverX KINOMEscan scanMAX
Experimental: as §1

FER = target: T15, FER (Homo sapiens, UniProt P16591)
T15 construct: purchased Eurofins/DiscoverX KINOMEscan scanMAX
Experimental: as §1

IKK-alpha = target: T16, IKK-alpha (Homo sapiens, UniProt O15111)
T16 construct: purchased Eurofins/DiscoverX KINOMEscan scanMAX
T16 sequence (O15111 whole entry): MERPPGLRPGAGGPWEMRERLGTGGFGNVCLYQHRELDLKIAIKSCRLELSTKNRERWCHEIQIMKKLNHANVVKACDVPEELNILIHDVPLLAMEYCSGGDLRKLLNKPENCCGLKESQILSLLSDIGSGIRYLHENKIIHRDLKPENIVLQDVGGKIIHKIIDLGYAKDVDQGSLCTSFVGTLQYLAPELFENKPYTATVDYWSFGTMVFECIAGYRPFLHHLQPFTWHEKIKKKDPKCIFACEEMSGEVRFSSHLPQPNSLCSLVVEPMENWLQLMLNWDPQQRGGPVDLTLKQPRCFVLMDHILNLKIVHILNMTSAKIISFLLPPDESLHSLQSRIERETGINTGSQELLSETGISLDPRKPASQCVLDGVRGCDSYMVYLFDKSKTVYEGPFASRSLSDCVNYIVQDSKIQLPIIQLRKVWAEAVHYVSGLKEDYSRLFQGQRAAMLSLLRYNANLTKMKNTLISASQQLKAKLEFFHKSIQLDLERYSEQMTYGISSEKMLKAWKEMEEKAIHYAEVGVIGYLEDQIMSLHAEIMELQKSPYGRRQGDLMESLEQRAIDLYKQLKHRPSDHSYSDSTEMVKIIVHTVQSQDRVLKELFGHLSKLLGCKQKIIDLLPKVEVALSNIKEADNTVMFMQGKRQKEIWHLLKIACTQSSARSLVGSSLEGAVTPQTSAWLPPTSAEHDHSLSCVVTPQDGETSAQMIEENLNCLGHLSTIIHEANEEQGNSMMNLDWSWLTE
Experimental: as §1

KIT-autoinhibited = target: T17, KIT-autoinhibited (Homo sapiens, UniProt P10721)
T17 construct: purchased Eurofins/DiscoverX KINOMEscan scanMAX
Experimental: as §1

MAP4K3 = target: T18, MAP4K3 (Homo sapiens, UniProt Q8IVH8)
T18 construct: purchased Eurofins/DiscoverX KINOMEscan scanMAX
T18 sequence (Q8IVH8 whole entry): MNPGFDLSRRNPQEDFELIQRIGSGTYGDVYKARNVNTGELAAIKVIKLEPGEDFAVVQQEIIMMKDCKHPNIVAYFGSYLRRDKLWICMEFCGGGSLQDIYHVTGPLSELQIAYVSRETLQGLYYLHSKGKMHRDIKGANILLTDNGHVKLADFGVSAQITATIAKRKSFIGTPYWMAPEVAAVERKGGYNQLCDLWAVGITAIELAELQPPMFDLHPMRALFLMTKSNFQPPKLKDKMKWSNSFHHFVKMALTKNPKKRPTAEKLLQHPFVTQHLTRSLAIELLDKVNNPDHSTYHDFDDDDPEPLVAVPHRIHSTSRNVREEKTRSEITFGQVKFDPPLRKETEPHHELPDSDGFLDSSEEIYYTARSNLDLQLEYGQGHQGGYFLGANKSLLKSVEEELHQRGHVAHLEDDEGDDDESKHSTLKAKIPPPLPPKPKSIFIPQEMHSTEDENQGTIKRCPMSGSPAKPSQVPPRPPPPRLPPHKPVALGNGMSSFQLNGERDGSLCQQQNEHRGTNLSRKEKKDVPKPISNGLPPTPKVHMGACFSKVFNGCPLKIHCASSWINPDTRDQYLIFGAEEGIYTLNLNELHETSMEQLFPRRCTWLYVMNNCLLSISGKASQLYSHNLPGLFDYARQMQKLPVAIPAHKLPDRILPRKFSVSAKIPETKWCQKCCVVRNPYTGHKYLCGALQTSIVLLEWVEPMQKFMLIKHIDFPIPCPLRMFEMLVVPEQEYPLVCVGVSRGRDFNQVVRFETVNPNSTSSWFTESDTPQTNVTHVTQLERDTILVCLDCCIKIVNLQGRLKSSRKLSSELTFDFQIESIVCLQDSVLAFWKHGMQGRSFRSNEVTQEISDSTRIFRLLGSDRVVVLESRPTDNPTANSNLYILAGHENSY
Experimental: as §1

TBK1 = target: T19, TBK1 (Homo sapiens, UniProt Q9UHD2)
T19 construct: purchased Eurofins/DiscoverX KINOMEscan scanMAX
Experimental: as §1

CLK2 = target: T20, CLK2 (Homo sapiens, UniProt P49760)
T20 construct: purchased Eurofins/DiscoverX KINOMEscan scanMAX
T20 sequence (P49760 whole entry): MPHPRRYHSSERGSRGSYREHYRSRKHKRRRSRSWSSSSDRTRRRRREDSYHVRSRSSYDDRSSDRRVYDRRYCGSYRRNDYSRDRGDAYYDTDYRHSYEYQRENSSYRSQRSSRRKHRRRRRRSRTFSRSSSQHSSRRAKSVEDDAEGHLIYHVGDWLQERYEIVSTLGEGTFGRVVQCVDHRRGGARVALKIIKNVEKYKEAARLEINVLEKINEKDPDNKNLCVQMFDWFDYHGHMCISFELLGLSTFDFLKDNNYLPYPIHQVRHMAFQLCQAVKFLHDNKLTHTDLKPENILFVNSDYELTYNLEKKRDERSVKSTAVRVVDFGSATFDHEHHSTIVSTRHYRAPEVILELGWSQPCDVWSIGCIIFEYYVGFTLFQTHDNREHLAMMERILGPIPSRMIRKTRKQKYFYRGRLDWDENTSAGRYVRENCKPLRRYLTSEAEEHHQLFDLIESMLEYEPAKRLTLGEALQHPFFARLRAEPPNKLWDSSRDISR
Experimental: as §1

MTOR = target: T21, MTOR (Homo sapiens, UniProt P42345)
T21 construct: purchased Eurofins/DiscoverX KINOMEscan scanMAX
Experimental: as §1

[3] = target: T22, RPS6KA4(Kin.Dom.2-C-terminal) (Homo sapiens, UniProt O75676)
T22 construct: RPS6KA4(Kin.Dom.2-C-terminal); purchased Eurofins/DiscoverX KINOMEscan scanMAX
Experimental: as §1

MLK1 = target: T23, MLK1 (Homo sapiens, UniProt P80192)
T23 construct: purchased Eurofins/DiscoverX KINOMEscan scanMAX
Experimental: as §1

SBK1 = target: T24, SBK1 (Homo sapiens, UniProt Q52WX2)
T24 construct: purchased Eurofins/DiscoverX KINOMEscan scanMAX
Experimental: as §1

CAMK2G = target: T25, CAMK2G (Homo sapiens, UniProt Q13555)
T25 construct: purchased Eurofins/DiscoverX KINOMEscan scanMAX
Experimental: as §1

[4] = target: T26, ABL1(T315I)-phosphorylated (Homo sapiens, UniProt P00519, T315I)
T26 construct: purchased Eurofins/DiscoverX KINOMEscan scanMAX
Experimental: as §1

FLT3 = target: T27, FLT3 (Homo sapiens, UniProt P36888)
T27 construct: purchased Eurofins/DiscoverX KINOMEscan scanMAX
Experimental: as §1

PDGFRA = target: T28, PDGFRA (Homo sapiens, UniProt P16234)
T28 construct: purchased Eurofins/DiscoverX KINOMEscan scanMAX
Experimental: as §1

CDK3 = target: T29, CDK3 (Homo sapiens, UniProt Q00526)
T29 construct: purchased Eurofins/DiscoverX KINOMEscan scanMAX
Experimental: as §1

KIT(D816H) = target: T30, KIT(D816H) (Homo sapiens, UniProt P10721, D816H)
T30 construct: purchased Eurofins/DiscoverX KINOMEscan scanMAX
Experimental: as §1

ACVR1B = target: T31, ACVR1B (Homo sapiens, UniProt P36896)
T31 construct: purchased Eurofins/DiscoverX KINOMEscan scanMAX
Experimental: as §1

NLK = target: T32, NLK (Homo sapiens, UniProt Q9UBE8)
T32 construct: purchased Eurofins/DiscoverX KINOMEscan scanMAX
Experimental: as §1

SRMS = target: T33, SRMS (Homo sapiens, UniProt Q9H3Y6)
T33 construct: purchased Eurofins/DiscoverX KINOMEscan scanMAX
Experimental: as §1

TAOK2 = target: T34, TAOK2 (Homo sapiens, UniProt Q9UL54)
T34 construct: purchased Eurofins/DiscoverX KINOMEscan scanMAX
Experimental: as §1

HIPK2 = target: T35, HIPK2 (Homo sapiens, UniProt Q9H2X6)
T35 construct: purchased Eurofins/DiscoverX KINOMEscan scanMAX
T35 sequence (Q9H2X6 whole entry): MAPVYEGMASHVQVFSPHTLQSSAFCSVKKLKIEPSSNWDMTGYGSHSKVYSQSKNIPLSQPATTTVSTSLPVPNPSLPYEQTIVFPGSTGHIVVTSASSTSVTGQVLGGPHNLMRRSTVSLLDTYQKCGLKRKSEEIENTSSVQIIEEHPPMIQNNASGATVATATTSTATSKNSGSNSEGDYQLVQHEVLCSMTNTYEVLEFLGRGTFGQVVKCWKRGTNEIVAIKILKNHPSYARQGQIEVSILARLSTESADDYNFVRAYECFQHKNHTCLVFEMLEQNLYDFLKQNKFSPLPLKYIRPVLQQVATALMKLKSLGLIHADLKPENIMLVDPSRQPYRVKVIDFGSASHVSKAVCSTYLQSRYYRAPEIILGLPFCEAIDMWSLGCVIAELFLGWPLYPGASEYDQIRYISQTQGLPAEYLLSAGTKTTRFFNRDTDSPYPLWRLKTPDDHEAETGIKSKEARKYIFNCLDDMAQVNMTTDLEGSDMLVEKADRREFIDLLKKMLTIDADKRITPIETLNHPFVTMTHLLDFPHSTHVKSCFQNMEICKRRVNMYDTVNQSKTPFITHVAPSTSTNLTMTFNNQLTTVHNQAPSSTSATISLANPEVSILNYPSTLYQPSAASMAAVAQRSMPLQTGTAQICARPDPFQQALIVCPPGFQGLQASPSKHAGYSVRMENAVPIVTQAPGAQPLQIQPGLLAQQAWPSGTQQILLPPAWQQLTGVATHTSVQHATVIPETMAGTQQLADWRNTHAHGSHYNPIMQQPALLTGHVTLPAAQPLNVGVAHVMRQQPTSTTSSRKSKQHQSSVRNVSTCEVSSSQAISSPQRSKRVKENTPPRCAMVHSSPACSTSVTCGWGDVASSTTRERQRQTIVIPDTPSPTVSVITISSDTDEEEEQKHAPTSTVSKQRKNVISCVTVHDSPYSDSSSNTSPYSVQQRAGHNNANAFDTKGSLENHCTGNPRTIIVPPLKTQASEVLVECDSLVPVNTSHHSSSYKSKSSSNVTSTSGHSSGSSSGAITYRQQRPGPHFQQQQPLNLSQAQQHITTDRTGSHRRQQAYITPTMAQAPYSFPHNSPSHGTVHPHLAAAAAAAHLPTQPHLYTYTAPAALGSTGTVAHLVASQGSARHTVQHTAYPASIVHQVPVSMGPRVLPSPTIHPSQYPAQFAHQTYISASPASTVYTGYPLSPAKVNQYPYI
Experimental: as §1

PRKR = target: T36, PRKR (Homo sapiens, UniProt P19525)
T36 construct: purchased Eurofins/DiscoverX KINOMEscan scanMAX
Experimental: as §1

ABL1-nonphosphorylated = target: T37, ABL1-nonphosphorylated (Homo sapiens, UniProt P00519)
T37 construct: purchased Eurofins/DiscoverX KINOMEscan scanMAX
Experimental: as §1

PIK3C2B = target: T38, PIK3C2B (Homo sapiens, UniProt O00750)
T38 construct: purchased Eurofins/DiscoverX KINOMEscan scanMAX
Experimental: as §1

NEK9 = target: T39, NEK9 (Homo sapiens, UniProt Q8TD19)
T39 construct: purchased Eurofins/DiscoverX KINOMEscan scanMAX
Experimental: as §1

SRC = target: T40, SRC (Homo sapiens, UniProt P12931)
T40 construct: purchased Eurofins/DiscoverX KINOMEscan scanMAX
Experimental: as §1

AXL = target: T41, AXL (Homo sapiens, UniProt P30530)
T41 construct: purchased Eurofins/DiscoverX KINOMEscan scanMAX
Experimental: as §1

T1 sequence (O14733 whole entry): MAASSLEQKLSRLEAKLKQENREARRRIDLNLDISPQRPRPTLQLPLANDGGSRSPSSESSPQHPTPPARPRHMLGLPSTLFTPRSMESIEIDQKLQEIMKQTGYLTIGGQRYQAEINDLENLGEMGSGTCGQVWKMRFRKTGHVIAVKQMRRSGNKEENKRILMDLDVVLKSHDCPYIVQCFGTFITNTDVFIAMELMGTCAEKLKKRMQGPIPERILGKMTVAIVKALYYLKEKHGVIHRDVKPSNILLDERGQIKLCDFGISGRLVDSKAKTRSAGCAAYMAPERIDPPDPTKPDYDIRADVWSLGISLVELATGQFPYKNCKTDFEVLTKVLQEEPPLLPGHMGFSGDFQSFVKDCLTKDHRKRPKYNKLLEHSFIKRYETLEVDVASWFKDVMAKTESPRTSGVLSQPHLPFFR

SMILES: CN1CCN(C2CCC(n3cc(-c4ccc(Oc5ccccc5)cc4)c4c(N)ncnc43)CC2)CC1 (centres unmarked) [A-419259]
- % Control (MKK7): 46%
- % Control [1]: 65%
- % Control (ANKK1): 73%
- % Control (DAPK2): 98%
- % Control (NIM1): 100%
- % Control (AAK1): 100%
- % Control (YSK1): 84%
- % Control [2]: 41%
- % Control (DAPK1): 99%
- % Control (PIK3CD): 100%
- % Control (TTK): 3.5%
- % Control (PIK3CB): 64%
- % Control (PIK3CA(Q546K)): 100%
- % Control (LOK): 20%
- % Control (FER): 100%
- % Control (IKK-alpha): 90%
- % Control (KIT-autoinhibited): 6.9%
- % Control (MAP4K3): 32%
- % Control (TBK1): 100%
- % Control (CLK2): 100%
- % Control (MTOR): 90%
- % Control [3]: 99%
- % Control (MLK1): 88%
- % Control (SBK1): 96%
- % Control (CAMK2G): 100%
- % Control [4]: 83%
- % Control (FLT3): 0.65%
- % Control (PDGFRA): 1.1%
- % Control (CDK3): 99%
- % Control (KIT(D816H)): 40%
- % Control (ACVR1B): 100%
- % Control (NLK): 83%
- % Control (SRMS): 0%
- % Control (TAOK2): 85%
- % Control (HIPK2): 100%
- % Control (PRKR): 100%
- % Control (ABL1-nonphosphorylated): 0.1%
- % Control (PIK3C2B): 10%
- % Control (NEK9): 90%
- % Control (SRC): 0.1%
- % Control (AXL): 6.1%
